Source: publication PMC8214221, “Sequence determinants in the cathelicidin LL-37 that promote inflammation via presentation of RNA to scavenger receptors” (The Journal of Biological Chemistry, 2021)
Residues, ends and D or L forms follow the SMILES beside them.

What was measured:
[1] = system: TBK1 and IRF7 phosphorylation in NHEKs; assay: Immunoblot of MAVS pathway signaling in NHEKs; type: cell-based, human; settings: U1 dsRNA 2.5 μg/ml + peptide 2 μM, in comparison to U1 + LL-34 parent
Excerpt: RNA-Seq was utilized to obtain a global transcriptomic profile and map unique immune pathways in NHEKs exposed to U1 dsRNA, LL-34 parent, Pep I24A, Pep L31A, and a combination of U1 dsRNA and LL-34 parent, Pep I24A, or Pep L31A. […] Similarly, 448 and 325 unique differentially regulated genes were observed after U1 + I24A and U1 + L31A treatments, respectively (Fig. 3, A and B and Fig. S2, A and B). […] These pathways included type 1 interferon signaling, cytokine signaling, response to external biotic stimulus, and cytokine-mediated signaling pathway. […] We verified the repression of mitochondrial antiviral signaling (MAVS) with immunoblot analysis. […]
Figure 3 LL-34 I24A and L31A mutations result in loss of innate immune vetting of U1 dsRNA leading to repressed activation of antiviral and innate immune pathways.A, Venn diagram for all differentially expressed genes from NHEKs treated with U1 dsRNA, LL-34-parent, and combinations of either U1 dsRNA and LL-34-parent. […] Protein expression of p-TBK1, TBK1, p-IRF7, IRF7, p-Akt, Akt, p-ERK1/2, and ERK1/2 was assessed with immunoblot. […]
Cells were lysed in complete radioimmunoprecipitation assay buffer with added 1× protease and Phosphatase Inhibitor Cocktail (Life Technologies). […] Total protein was quantified for each treatment with Bio-Rad Protein Assay (Bio-Rad). […]

[2] = system: normal human epidermal keratinocytes (NHEKs); assay: LDH release cytotoxicity assay in keratinocytes; type: cell-based; settings: minimal concentration giving 50% LDH release by NHEKs
How it was run: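 Normal human epidermal keratinocytes were exposed to LL-34 parent and alanine-substituted peptides. Cytotoxicity was read as LDH release in fresh culture supernatants after treatment, using a commercial kit, and reported as the minimal concentration showing toxicity.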

Structure (SMILES) | Phosphorylation of TBK1 and IRF7 [1] | Minimal cytotoxic concentration in NHEK (LD50) [2]
CC[C@H](C)[C@H](NC(=O)[C@H](CCCCN)NC(=O)[C@H](CCC(=O)O)NC(=O)[C@H](CCCCN)NC(=O)[C@H](CO)NC(=O)[C@H](CCCCN)NC(=O)[C@H](CCCNC(=N)N)NC(=O)[C@H](Cc1ccccc1)NC(=O)[C@H](Cc1ccccc1)NC(=O)[C@H](CC(=O)O)NC(=O)CNC(=O)[C@H](CC(C)C)NC(=O)[C@@H](N)CC(C)C)C(=O)NCC(=O)N[C@@H](CCCCN)C(=O)N[C@@H](CCC(=O)O)C(=O)N[C@@H](Cc1ccccc1)C(=O)N[C@@H](CCCCN)C(=O)N[C@@H](CCCNC(=N)N)C(=O)N[C@H](C(=O)N[C@H](C(=O)N[C@@H](CCC(N)=O)C(=O)N[C@@H](CCCNC(=N)N)C(=O)N[C@@H](C)C(=O)N[C@@H](CCCCN)C(=O)N[C@@H](CC(=O)O)C(=O)N[C@@H](Cc1ccccc1)C(=O)N[C@@H](CC(C)C)C(=O)N[C@@H](CCCNC(=N)N)C(=O)N[C@@H](CC(N)=O)C(=O)N[C@@H](CC(C)C)C(=O)N[C@H](C(=O)N1CCC[C@H]1C(=O)N[C@@H](CCCNC(=N)N)C(=O)O)C(C)C)C(C)C)[C@@H](C)CC [LL-34—I24A] (H-LLGDFFRKSKEKIGKEFKRIVQRAKDFLRNLVPR-OH) | Decreased phosphorylation | 20 µM
CC[C@H](C)[C@H](NC(=O)[C@H](CCCCN)NC(=O)[C@H](CCC(=O)O)NC(=O)[C@H](CCCCN)NC(=O)[C@H](CO)NC(=O)[C@H](CCCCN)NC(=O)[C@H](CCCNC(=N)N)NC(=O)[C@H](Cc1ccccc1)NC(=O)[C@H](Cc1ccccc1)NC(=O)[C@H](CC(=O)O)NC(=O)CNC(=O)[C@H](CC(C)C)NC(=O)[C@@H](N)CC(C)C)C(=O)NCC(=O)N[C@@H](CCCCN)C(=O)N[C@@H](CCC(=O)O)C(=O)N[C@@H](Cc1ccccc1)C(=O)N[C@@H](CCCCN)C(=O)N[C@@H](CCCNC(=N)N)C(=O)N[C@H](C(=O)N[C@H](C(=O)N[C@@H](CCC(N)=O)C(=O)N[C@@H](CCCNC(=N)N)C(=O)N[C@H](C(=O)N[C@@H](CCCCN)C(=O)N[C@@H](CC(=O)O)C(=O)N[C@@H](Cc1ccccc1)C(=O)N[C@@H](CC(C)C)C(=O)N[C@@H](CCCNC(=N)N)C(=O)N[C@@H](CC(N)=O)C(=O)N[C@@H](C)C(=O)N[C@H](C(=O)N1CCC[C@H]1C(=O)N[C@@H](CCCNC(=N)N)C(=O)O)C(C)C)[C@@H](C)CC)C(C)C)[C@@H](C)CC [LL-34—L31A] (H-LLGDFFRKSKEKIGKEFKRIVQRIKDFLRNAVPR-OH) | Decreased phosphorylation | 10 µM
